Assay results from PMC10882719 (Frontiers in Neuroscience, 2024).
Read-outs that look alike come from different tables or passages of the source.

Legend:
168 GPCRs [1] = biological target: T1, 168 GPCRs (Homo sapiens, UniProt Q96LB2); type: cell-based
T1 construct: host or cells: PathHunter cell lines

168 GPCRs [2] = biological target: T2, 168 GPCRs (Homo sapiens, UniProt P35368); type: cell-based; settings: ADRA1B
T2 construct: host or cells: PathHunter cell lines
T2 sequence (P35368 1-520): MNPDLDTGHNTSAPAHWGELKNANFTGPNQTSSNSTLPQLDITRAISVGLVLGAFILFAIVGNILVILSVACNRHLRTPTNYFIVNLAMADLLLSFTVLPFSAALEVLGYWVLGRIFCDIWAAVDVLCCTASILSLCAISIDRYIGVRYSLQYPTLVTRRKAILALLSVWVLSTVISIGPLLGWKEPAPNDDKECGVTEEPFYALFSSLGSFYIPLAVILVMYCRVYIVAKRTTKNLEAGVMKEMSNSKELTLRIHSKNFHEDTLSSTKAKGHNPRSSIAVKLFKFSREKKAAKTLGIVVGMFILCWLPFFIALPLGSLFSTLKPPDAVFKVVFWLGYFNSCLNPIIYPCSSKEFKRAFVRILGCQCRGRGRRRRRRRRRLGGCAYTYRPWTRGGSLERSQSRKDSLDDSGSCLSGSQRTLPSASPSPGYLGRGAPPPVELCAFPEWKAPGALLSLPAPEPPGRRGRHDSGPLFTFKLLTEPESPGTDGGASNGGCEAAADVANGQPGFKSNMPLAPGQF

168 GPCRs [3] = biological target: T3, 168 GPCRs (Homo sapiens, UniProt P30550); type: cell-based; settings: GRPR
T3 construct: host or cells: PathHunter cell lines

168 GPCRs [4] = biological target: T4, 168 GPCRs (Homo sapiens, UniProt P30411); type: cell-based
T4 construct: host or cells: PathHunter cell lines
T4 sequence (P30411 1-391): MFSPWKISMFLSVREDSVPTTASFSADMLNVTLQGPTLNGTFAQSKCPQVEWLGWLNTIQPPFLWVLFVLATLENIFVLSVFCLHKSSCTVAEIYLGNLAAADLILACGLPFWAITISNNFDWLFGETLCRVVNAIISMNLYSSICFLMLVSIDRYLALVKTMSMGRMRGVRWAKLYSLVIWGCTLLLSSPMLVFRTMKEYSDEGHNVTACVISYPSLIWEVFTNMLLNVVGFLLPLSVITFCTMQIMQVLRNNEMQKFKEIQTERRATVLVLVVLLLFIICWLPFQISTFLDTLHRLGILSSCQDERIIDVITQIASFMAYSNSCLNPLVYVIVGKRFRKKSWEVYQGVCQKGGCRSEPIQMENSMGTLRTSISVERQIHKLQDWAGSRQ

168 GPCRs [5] = biological target: T5, 168 GPCRs (Homo sapiens, UniProt P49019); type: cell-based; settings: GPR109B
T5 construct: host or cells: PathHunter cell lines

168 GPCRs [6] = biological target: T6, 168 GPCRs (Homo sapiens, UniProt P35372); type: cell-based; settings: OPRM1
T6 construct: host or cells: PathHunter cell lines

168 GPCRs [7] = biological target: T7, 168 GPCRs (Homo sapiens, UniProt Q99705); type: cell-based
T7 construct: host or cells: PathHunter cell lines

168 GPCRs [8] = biological target: T8, 168 GPCRs (Homo sapiens, UniProt P21453); type: cell-based
T8 construct: host or cells: PathHunter cell lines

168 GPCRs [9] = biological target: T9, 168 GPCRs (Homo sapiens, UniProt P47211); type: cell-based
T9 construct: host or cells: PathHunter cell lines
T9 sequence (P47211 1-349): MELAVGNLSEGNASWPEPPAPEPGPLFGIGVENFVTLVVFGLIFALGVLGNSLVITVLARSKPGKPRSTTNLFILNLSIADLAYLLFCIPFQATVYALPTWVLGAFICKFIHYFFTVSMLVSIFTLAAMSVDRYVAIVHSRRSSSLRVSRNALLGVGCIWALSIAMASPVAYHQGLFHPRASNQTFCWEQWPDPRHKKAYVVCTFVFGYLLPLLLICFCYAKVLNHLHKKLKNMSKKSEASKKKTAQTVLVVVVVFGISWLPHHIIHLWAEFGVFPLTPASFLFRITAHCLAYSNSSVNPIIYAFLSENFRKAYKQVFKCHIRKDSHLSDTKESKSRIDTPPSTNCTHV

[10] = system: frontal cortex gene expression; assay: RNA-seq differential gene expression, frontal cortex; type: in vivo, rat; settings: 10 mg/kg IP, 8 h; for Number of genes significantly regulated: vs vehicle

T3 sequence (P30550 whole entry): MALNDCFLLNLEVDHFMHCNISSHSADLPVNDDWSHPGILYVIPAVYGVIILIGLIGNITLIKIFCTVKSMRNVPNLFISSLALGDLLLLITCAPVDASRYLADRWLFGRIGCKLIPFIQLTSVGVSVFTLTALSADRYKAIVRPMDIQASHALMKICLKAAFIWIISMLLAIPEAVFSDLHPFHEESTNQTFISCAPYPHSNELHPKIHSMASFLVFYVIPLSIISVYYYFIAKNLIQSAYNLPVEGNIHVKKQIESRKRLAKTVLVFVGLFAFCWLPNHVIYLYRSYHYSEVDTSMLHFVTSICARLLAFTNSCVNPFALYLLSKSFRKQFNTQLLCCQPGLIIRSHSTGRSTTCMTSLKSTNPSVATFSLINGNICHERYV
T1 sequence (Q96LB2 whole entry): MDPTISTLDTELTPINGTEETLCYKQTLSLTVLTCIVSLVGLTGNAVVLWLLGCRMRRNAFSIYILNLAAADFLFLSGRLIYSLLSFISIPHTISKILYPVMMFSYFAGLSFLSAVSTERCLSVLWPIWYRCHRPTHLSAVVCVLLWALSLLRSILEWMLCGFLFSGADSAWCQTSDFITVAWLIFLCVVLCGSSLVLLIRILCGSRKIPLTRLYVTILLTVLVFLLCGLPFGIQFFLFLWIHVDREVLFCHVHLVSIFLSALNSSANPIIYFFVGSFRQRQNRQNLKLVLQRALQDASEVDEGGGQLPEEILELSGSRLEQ
T5 sequence (P49019 whole entry): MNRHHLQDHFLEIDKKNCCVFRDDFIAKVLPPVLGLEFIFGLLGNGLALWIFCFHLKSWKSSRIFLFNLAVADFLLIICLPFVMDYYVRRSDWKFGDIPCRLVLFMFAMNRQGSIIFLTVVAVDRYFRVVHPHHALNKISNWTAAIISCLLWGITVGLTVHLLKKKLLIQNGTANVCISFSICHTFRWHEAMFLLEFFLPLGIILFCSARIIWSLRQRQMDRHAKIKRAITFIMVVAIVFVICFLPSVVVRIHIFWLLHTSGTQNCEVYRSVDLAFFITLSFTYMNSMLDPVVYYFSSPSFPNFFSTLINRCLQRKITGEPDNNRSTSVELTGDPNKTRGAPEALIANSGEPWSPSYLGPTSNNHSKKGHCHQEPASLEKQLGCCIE
T6 sequence (P35372 whole entry): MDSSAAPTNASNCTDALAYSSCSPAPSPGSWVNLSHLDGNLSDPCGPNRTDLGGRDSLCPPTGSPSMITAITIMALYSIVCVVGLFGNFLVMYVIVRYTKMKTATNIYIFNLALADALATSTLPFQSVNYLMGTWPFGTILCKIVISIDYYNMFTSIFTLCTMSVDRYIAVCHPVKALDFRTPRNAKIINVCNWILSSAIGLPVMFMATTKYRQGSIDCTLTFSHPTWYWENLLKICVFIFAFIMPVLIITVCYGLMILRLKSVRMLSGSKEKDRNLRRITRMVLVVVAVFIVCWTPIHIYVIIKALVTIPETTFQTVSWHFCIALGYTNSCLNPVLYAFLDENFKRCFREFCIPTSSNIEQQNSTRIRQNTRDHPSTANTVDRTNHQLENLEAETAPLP
T7 sequence (Q99705 whole entry): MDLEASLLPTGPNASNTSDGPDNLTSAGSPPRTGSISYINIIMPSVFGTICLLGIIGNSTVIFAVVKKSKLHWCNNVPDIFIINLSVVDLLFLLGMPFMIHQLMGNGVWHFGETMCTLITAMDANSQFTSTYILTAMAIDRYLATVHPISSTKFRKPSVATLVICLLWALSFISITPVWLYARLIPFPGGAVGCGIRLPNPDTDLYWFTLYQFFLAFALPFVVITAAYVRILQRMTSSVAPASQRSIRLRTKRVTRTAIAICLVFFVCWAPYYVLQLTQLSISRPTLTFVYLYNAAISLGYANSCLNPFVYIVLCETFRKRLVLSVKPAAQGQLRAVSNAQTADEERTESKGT
T8 sequence (P21453 whole entry): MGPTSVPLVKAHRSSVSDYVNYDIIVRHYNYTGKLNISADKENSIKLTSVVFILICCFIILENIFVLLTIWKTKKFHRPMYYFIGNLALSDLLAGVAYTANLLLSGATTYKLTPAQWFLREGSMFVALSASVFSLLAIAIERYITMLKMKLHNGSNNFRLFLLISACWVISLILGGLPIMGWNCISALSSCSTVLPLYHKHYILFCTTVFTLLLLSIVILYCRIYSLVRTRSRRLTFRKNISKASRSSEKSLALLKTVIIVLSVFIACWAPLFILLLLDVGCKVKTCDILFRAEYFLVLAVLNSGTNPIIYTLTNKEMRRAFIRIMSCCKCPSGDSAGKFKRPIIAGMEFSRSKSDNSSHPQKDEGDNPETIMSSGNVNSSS

SMILES | % Agonist Activity (168 GPCRs [1]; MRGPRX1, 1 uM) [%] | % Antagonist Activity (168 GPCRs [1]; MRGPRX1, 1 uM) [%] | % Agonist Activity (168 GPCRs [1]; MRGPRX1, 10 uM) [%] | % Antagonist Activity (168 GPCRs [1]; MRGPRX1, 10 uM) [%] | % Agonist Activity (168 GPCRs [2]; 1 uM) [%] | % Antagonist Activity (168 GPCRs [2]; 1 uM) [%] | % Agonist Activity (168 GPCRs [2]; 10 uM) [%] | % Antagonist Activity (168 GPCRs [2]; 10 uM) [%] | % Agonist Activity (168 GPCRs [3]; 1 uM) [%] | % Antagonist Activity (168 GPCRs [3]; 1 uM) [%] | % Agonist Activity (168 GPCRs [3]; 10 uM) [%] | % Antagonist Activity (168 GPCRs [3]; 10 uM) [%] | % Agonist Activity (168 GPCRs [4]; BDKRB2, 1 uM) [%] | % Antagonist Activity (168 GPCRs [4]; BDKRB2, 1 uM) [%] | % Agonist Activity (168 GPCRs [4]; BDKRB2, 10 uM) [%] | % Antagonist Activity (168 GPCRs [4]; BDKRB2, 10 uM) [%] | % Agonist Activity (168 GPCRs [5]; 1 uM) [%] | % Antagonist Activity (168 GPCRs [5]; 1 uM) [%] | % Agonist Activity (168 GPCRs [5]; 10 uM) [%] | % Antagonist Activity (168 GPCRs [5]; 10 uM) [%] | other results
CNC(C)C(=O)c1ccc2c(c1)OCO2 (stereo not shown) [methylone] | -1.7 | -6.5 | -1.5 | -10.2 | -3.3 | 17.9 | -2.9 | 20.6 | 0 | 0.7 | -0.1 | -1.4 | -3.6 | 7.3 | -2.9 | -2.6 | 1 | -16.5 | 0.5 | -20.2 | % Agonist Activity (168 GPCRs [6]; Conc 1 uM): 0.2%; % Antagonist Activity (168 GPCRs [6]; Conc 1 uM): -8%; % Agonist Activity (168 GPCRs [6]; Conc 10 uM): 0.5%; % Antagonist Activity (168 GPCRs [6]; Conc 10 uM): -18%; % Agonist Activity (168 GPCRs [7]; MCHR1, 1 uM): 3.9%; % Antagonist Activity (168 GPCRs [7]; MCHR1, 1 uM): -12.2%; % Agonist Activity (168 GPCRs [7]; MCHR1, 10 uM): 3.1%; % Antagonist Activity (168 GPCRs [7]; MCHR1, 10 uM): -18.3%; % Agonist Activity (168 GPCRs [8]; EDG1, 1 uM): 0.1%; % Antagonist Activity (168 GPCRs [8]; EDG1, 1 uM): 12.4%; % Agonist Activity (168 GPCRs [8]; EDG1, 10 uM): 0.4%; % Antagonist Activity (168 GPCRs [8]; EDG1, 10 uM): 10.5%; % Agonist Activity (168 GPCRs [9]; GALR1, 1 uM): 0.8%; % Antagonist Activity (168 GPCRs [9]; GALR1, 1 uM): 7.1%; % Agonist Activity (168 GPCRs [9]; GALR1, 10 uM): 0.6%; % Antagonist Activity (168 GPCRs [9]; GALR1, 10 uM): 6.8%; Induction of BDNF, increase compared with controls ([10]; RNA-seq): ~ 60%; Number of genes significantly regulated ([10]; frontal cortex): 480 genes
CNC(C)Cc1ccc2c(c1)OCO2 (stereo not shown) [MDMA, 3,4-Methylenedioxy methamphetamine, reference compound] | 0.2 | 5.1 | -0.4 | 7.6 | -1.6 | 18.7 | -1.6 | 35.1 | -0.3 | 1.9 | -0.6 | 1.8 | 0.3 | -6.6 | 0.1 | -5.6 | 0.7 | -15.2 | 1.4 | -11.4 | % Agonist Activity (168 GPCRs [6]; Conc 1 uM): -0.4%; % Antagonist Activity (168 GPCRs [6]; Conc 1 uM): -22.1%; % Agonist Activity (168 GPCRs [6]; Conc 10 uM): -0.2%; % Antagonist Activity (168 GPCRs [6]; Conc 10 uM): -18.9%; % Agonist Activity (168 GPCRs [7]; MCHR1, 1 uM): -4%; % Antagonist Activity (168 GPCRs [7]; MCHR1, 1 uM): 5.3%; % Agonist Activity (168 GPCRs [7]; MCHR1, 10 uM): -4.4%; % Antagonist Activity (168 GPCRs [7]; MCHR1, 10 uM): 2.1%; % Agonist Activity (168 GPCRs [8]; EDG1, 1 uM): 0%; % Antagonist Activity (168 GPCRs [8]; EDG1, 1 uM): 3.5%; % Agonist Activity (168 GPCRs [8]; EDG1, 10 uM): -0.6%; % Antagonist Activity (168 GPCRs [8]; EDG1, 10 uM): -12.4%; % Agonist Activity (168 GPCRs [9]; GALR1, 1 uM): 0.7%; % Antagonist Activity (168 GPCRs [9]; GALR1, 1 uM): -0.2%; % Agonist Activity (168 GPCRs [9]; GALR1, 10 uM): 0.6%; % Antagonist Activity (168 GPCRs [9]; GALR1, 10 uM): -5.1%; More genes significantly regulated compared to methylone ([10]; frontal cortex): ~ 72%; Number of genes significantly regulated ([10]; frontal cortex): 825 genes
